The supplement of paper PMC10307832

What was measured:
Test in all cases: relative viability (nuclei count vs DMSO), 5 days (fraction); higher = more cells survive
[1] = compound: CC1=C(C(=O)N2C=CSC2=N1)CCN3CCC(=C(C4=CC=CC=C4)C5=CC=C(C=C5)F)CC3 + Nc1nc2[nH]cc(CCc3ccc(C(=O)N[C@@H](CCC(=O)O)C(=O)O)cc3)c2c(=O)[nH]1 [Pemetrexed] (partner 0.2 µM)
In short: (§1)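 The day after seeding in 1536-well plates, lung cancer cell lines were treated by pin tool with a single drug, or with a fixed anchor-drug dose together with five library-drug doses (not always all listed) in √10 steps. After 5 days, a combined fix-and-stain solution (final 0.05% Triton X-100, 1% formaldehyde, 1 ug/ml Hoechst) was added. Nuclei counted on 4× images gave relative viability as treated counts over vehicle counts, reported as the median of duplicate plates.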

[2] = compound: CC1=C(C(=O)N2C=CSC2=N1)CCN3CCC(=C(C4=CC=CC=C4)C5=CC=C(C=C5)F)CC3 + NC(=O)Nc1cc(-c2cccc(F)c2)sc1C(=O)N[C@H]1CCCNC1 [AZD7762] (partner 0.2 µM)
In short: as §1

[3] = compound: CC1=C(C(=O)N2C=CSC2=N1)CCN3CCC(=C(C4=CC=CC=C4)C5=CC=C(C=C5)F)CC3 + COc1cccc2cc(-c3nc([C@H]4CC[C@H](C(=O)O)CC4)n4ncnc(N)c34)[nH]c12 [OSI-027] (partner 0.5 µM)
In short: as §1

[4] = compound: CC1=C(C(=O)N2C=CSC2=N1)CCN3CCC(=C(C4=CC=CC=C4)C5=CC=C(C=C5)F)CC3 + COc1cc2c(Oc3ccc(NC(=O)C4(C(=O)Nc5ccc(F)cc5)CC4)cc3F)ccnc2cc1OCCCN1CCOCC1 [Foretinib] (partner 0.25 µM)
In short: as §1

Cell Line | relative viability ([1]; first compound 0.08 µM) | relative viability ([1]; first compound 0.253 µM) | relative viability ([1]; first compound 0.8 µM) | relative viability ([1]; first compound 2.53 µM) | relative viability ([1]; first compound 8 µM) | relative viability ([2]; first compound 0.08 µM) | relative viability ([2]; first compound 0.253 µM) | relative viability ([2]; first compound 0.8 µM) | relative viability ([2]; first compound 2.53 µM) | relative viability ([2]; first compound 8 µM) | relative viability ([3]; first compound 0.08 µM) | relative viability ([3]; first compound 0.253 µM) | relative viability ([3]; first compound 0.8 µM) | relative viability ([3]; first compound 2.53 µM) | relative viability ([3]; first compound 8 µM) | relative viability ([4]; first compound 0.08 µM) | relative viability ([4]; first compound 0.253 µM) | relative viability ([4]; first compound 0.8 µM) | relative viability ([4]; first compound 2.53 µM) | relative viability ([4]; first compound 8 µM)
NCI-H1944 | 0.626 | 0.663 | 0.596 | 0.591 | 0.499 | 0.482 | 0.491 | 0.461 | 0.469 | 0.43 | 0.408 | 0.42 | 0.37 | 0.426 | 0.31 | 0.8 | 1.12 | 0.891 | 0.862 | 0.539
NCI-H1734 | 0.487 | 0.452 | 0.391 | 0.424 | 0.399 | 0.545 | 0.487 | 0.475 | 0.549 | 0.368 | 0.549 | 0.571 | 0.564 | 0.576 | 0.416 | 0.991 | 0.913 | 0.72 | 0.992 | 0.555
NCI-H322M | 0.686 | 0.622 | 0.555 | 0.706 | 0.683 | 0.601 | 0.606 | 0.563 | 0.516 | 0.543 | 0.522 | 0.509 | 0.547 | 0.596 | 0.442 | 0.86 | 1.01 | 1.11 | 0.942 | 0.9
PC-14 | 0.153 | 0.138 | 0.133 | 0.153 | 0.137 | 0.373 | 0.312 | 0.369 | 0.371 | 0.246 | 0.529 | 0.981 | 1.04 | 1.17 | 0.507 | 0.783 | 0.999 | 1 | 0.828 | 0.783
NCI-H1395 | 0.797 | 0.813 | 0.72 | 0.885 | 0.806 | 0.384 | 0.457 | 0.391 | 0.419 | 0.383 | 0.685 | 0.626 | 0.558 | 0.596 | 0.621 | 1.07 | 1.08 | 0.972 | 0.97 | 1.06
NCI-H2170 | 0.278 | 0.269 | 0.28 | 0.271 | 0.248 | 0.696 | 0.884 | 0.932 | 0.76 | 0.462 | 0.774 | 0.673 | 0.734 | 0.726 | 0.604 | 0.874 | 1.03 | 1.11 | 1.06 | 0.674
